Read-outs that look alike come from different tables or passages of the source.
What was measured:
mongrel dogs [1] = test: Electrophysiological (EKG) effects of ondansetron enantiomers and racemate in dogs, rising cumulative doses; settings: for Death or survival of dogs during or shortly after the experiment: four dogs per treatment, 0-4.0 mg/kg cumulative
Description: (§1) An investigation was conducted to determine the effect of racemic ondansetron and the R(+)- and S(−)-enanatiomers of ondansetron in causing cardiac arrhythmias (cardiotoxicity) resulting from a lengthening of the cardiac action potential.
(§2) The order of administration was randomized to ensure that each dog received only one treatment.

mongrel dogs [2] = settings: dog, in vivo
Description: as §1, §2

Row | SMILES | Prolongation of QTc interval, compared among treatments (mongrel dogs [1]; dogs, comparison in words of the three treatments) | Death or survival of dogs during or shortly after the experiment (mongrel dogs [1]) | Cardiotoxicity, compared among treatments (mongrel dogs [1]; conclusion from QTc and mortality data in dogs) | Prolongation of QTc interval, compared among treatments (mongrel dogs [2]) | QTc Interval (mongrel dogs [2]; 4 mg/kg) [s]
1 | Cc1nccn1CC1CCc2c(c3ccccc3n2C)C1=O (racemic) [R,S-Ondansetron, ondansetron] | most prolonged | survived |  |  | 
2 | Cc1nccn1C[C@H]1CCc2c(c3ccccc3n2C)C1=O [R(+)-Ondansetron, R(+) ondansetron] |  | survived | less cardiotoxicity than either S(−) ondansetron or racemic ondansetron | shortest | 
3 | Cc1nccn1C[C@@H]1CCc2c(c3ccccc3n2C)C1=O [S(−)-Ondansetron, S(−) ondansetron] |  |  |  | most prolonged | 0.44 ± 0.03

Source: US6548082B1, “Methods for treating apnea and apnea disorders using optically pure R(+) ondansetron” (Sepracor Inc., priority 1999, dated 2003)
